In patent US8538706B2, “Method for affinity scoring of peptide/protein complexes” (Lonza Biologics PLC, priority 2004, dated 2013):

Experiments:
HLA-A*0101 (A1) = HLA-A*0101 (A1) (Homo sapiens, UniProt P04439, A114D/A174V/A182V/D101N/D185E/E176A/E190D/L180R/Q94H/R68K/S129P/T187R/V100A/V91M/W191G); conditions: cited from earlier work
HLA-A*2402 = HLA-A*2402 (Homo sapiens, UniProt P04439, D101N/D140Y/D185E/E176V/E190D/F33S/G103R/G107R/I119L/I121M/I306V/K335N/L105A/L180Q/L300P/N151K/N90K/Q86E/Q94H/R106L/R138H/R89G/T104I/T345S/V100E/W191G/Y123F); assay: independent binding assay of fluorescent reference peptide (Kdref), A24; conditions: single-site curve fitting, approximate
Description: 50% inhibitory concentrations (IC50-values) were calculated as averages obtained from at least 3 independent measurements, i.e. from different cell preparations and peptide dilutions. Test peptides >95% pure (Thermo Electron GmbH) were stored at 10 mM in DMSO at −20° C. Cysteine-containing peptides were stored at 10 mM in 1 mM DTT DMSO. […] IC50-values were converted to binding free energies (AG) using the relationships Kd=IC50Kdref/cref (7) and AG=RT ln(Kd) (8) where Kdref and cref are the dissociation constant and formal concentration of the reference peptide, respectively. The Kdref values were derived from an independent binding assay in which the fluorescence intensity was measured as a function of increasing concentrations of reference peptide.

Substance: IYQYMDDLY
- binding to A1 in words (HLA-A*0101 (A1); Tyr at P2): medium-affinity binder

Substance: RYLKC(5Fluorescein)QQLL
- Kd (HLA-A*2402): ~0.03 µM

Substance: YSDSVYGDT
- Kd (HLA-A*0101 (A1); strongest A1-binding peptide from HPV-18): 0.188 µM
